Where “and” joins values, the source holds several entries; their conditions need not be identical. Identical values can stand only once. Toxic doses and inconclusive results are not listed. How the source made its calls: active means survival T/C of 150% or more; inactive means T/C below 125% in these data.
Tested on: P388 leukemia ip, CD2F1 mice, survival T/C
Test: NCI In Vivo Anticancer Drug Screen. Data for tumor model P388 Leukemia (intraperitoneal) in CD2F1 (CDF1) mice
Details: endpoint: median survival time, higher = longer survival
How it was run: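 Mice carrying the transplanted tumor received test compound or vehicle. Survival was recorded in each group, and the value is the treated-group measurement divided by that of the vehicle-treated control group.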

[1] = dose: 200.0 mg/kg/injection, schedule: Q01DX005 (ip), vehicle: saline with Tween-80
[2] = dose: 50.0 mg/kg/injection, schedule: Q01DX009 (ip), vehicle: saline with Tween-80
[3] = dose: 100.0 mg/kg/injection, schedule: Q01DX009 (ip), vehicle: saline with Tween-80
[4] = dose: 200.0 mg/kg/injection, schedule: Q01DX009 (ip), vehicle: saline with Tween-80
[5] = dose: 60.0 mg/kg/injection, schedule: Q01DX005 (ip), vehicle: saline with Tween-80
[6] = dose: 120.0 mg/kg/injection, schedule: Q01DX005 (ip), vehicle: saline with Tween-80
[7] = dose: 240.0 mg/kg/injection, schedule: Q01DX005 (ip), vehicle: saline with Tween-80
[8] = dose: 50.0 mg/kg/injection, schedule: Q01DX005 (ip), vehicle: Klucel (hydroxypropylcellulose) (HPC)

Measured: T/C

CCC(=C(c1ccc(OCCN(C)C)cc1)c1cccc(O)c1)c1ccccc1 (mixture of isomers)
inactive: dose: 60.0 mg/kg/injection, schedule: Q01DX005 (ip), vehicle: Klucel (hydroxypropylcellulose) (HPC) 104 % of control | dose: 120.0 mg/kg/injection, schedule: Q01DX005 (ip), vehicle: Klucel (hydroxypropylcellulose) (HPC) 107 % of control

NC(=O)CNC(c1ccccc1)c1ccccc1
inactive: dose: 37.5 mg/kg/injection, schedule: Q01DX009 (ip), vehicle: saline with Tween-80 107 % of control | dose: 75.0 mg/kg/injection, schedule: Q01DX009 (ip), vehicle: saline with Tween-80 106 % of control | dose: 150.0 mg/kg/injection, schedule: Q01DX009 (ip), vehicle: saline with Tween-80 100 % of control

O=C(Nc1ccc2c(c1)Cc1ccccc1-2)c1cccc2ccccc12
inactive: dose: 0.75 mg/kg/injection, schedule: Q01DX005 (ip), vehicle: saline with Tween-80 96 % of control | dose: 1.5 mg/kg/injection, schedule: Q01DX005 (ip), vehicle: saline with Tween-80 96 % of control | dose: 3.0 mg/kg/injection, schedule: Q01DX005 (ip), vehicle: saline with Tween-80 89 % of control | [1] 90 % of control

CO/C=C1\SC(=S)N(c2ccc(NC(C)=O)cc2)C1=O
inactive: [2] 93 % of control | [3] 92 % of control | [4] 96 % of control

CC1(C)C[C@H](OC2CCCCO2)[C@H]2O[C@@]2(C)C1 (stereo partly specified)
inactive: dose: 100.0 mg/kg/injection, schedule: Q04DX002 (ip), vehicle: saline 103 % of control | dose: 200.0 mg/kg/injection, schedule: Q04DX002 (ip), vehicle: saline 102 % of control | dose: 400.0 mg/kg/injection, schedule: Q04DX002 (ip), vehicle: saline 96 % of control

NC(N)=NS(=O)(=O)c1ccc(N=Cc2c3ccccc3nc3cc(Cl)ccc23)cc1
inactive: [5] 91 % of control | [6] 91 % of control | [7] 91 % of control

S=C(Nc1ccc2c(c1)OCO2)SCc1ccc(Cl)c(Cl)c1
inactive: dose: 12.5 mg/kg/injection, schedule: Q01DX009 (ip), vehicle: Klucel (hydroxypropylcellulose) (HPC) 91 % of control | dose: 25.0 mg/kg/injection, schedule: Q01DX009 (ip), vehicle: Klucel (hydroxypropylcellulose) (HPC) 105 % of control | dose: 50.0 mg/kg/injection, schedule: Q01DX009 (ip), vehicle: Klucel (hydroxypropylcellulose) (HPC) 107 % of control | dose: 50.0 mg/kg/injection, schedule: Q01DX009 (ip), vehicle: saline 106 % of control | dose: 50.0 mg/kg/injection, schedule: Q01DX009 (ip), vehicle: suspension in saline 103 % of control | dose: 100.0 mg/kg/injection, schedule: Q01DX009 (ip), vehicle: saline 108 % of control | dose: 100.0 mg/kg/injection, schedule: Q01DX009 (ip), vehicle: suspension in saline 93 % of control | dose: 200.0 mg/kg/injection, schedule: Q01DX009 (ip), vehicle: saline 118 % of control | dose: 200.0 mg/kg/injection, schedule: Q01DX009 (ip), vehicle: suspension in saline 98 % of control

S=C1NCCNC(=S)SSSS1
inactive: dose: 50.0 mg/kg/injection, schedule: Q01DX005 (ip), vehicle: saline with Tween-80 107 % of control | dose: 100.0 mg/kg/injection, schedule: Q01DX005 (ip), vehicle: saline with Tween-80 114 % of control | [1] 113 % of control

Cc1ccc2ccccc2c1N(CC(=O)O)S(=O)(=O)c1ccccc1
inactive: [3] 100 % of control | dose: 100.0 mg/kg/injection, schedule: Q04DX003 (ip), vehicle: saline with Tween-80 100 % of control | [4] 110 % of control | dose: 200.0 mg/kg/injection, schedule: Q04DX003 (ip), vehicle: saline with Tween-80 100 % of control | dose: 400.0 mg/kg/injection, schedule: Q01DX009 (ip), vehicle: saline with Tween-80 120 % of control | dose: 400.0 mg/kg/injection, schedule: Q04DX003 (ip), vehicle: saline with Tween-80 109 % of control

CCCn1c2c(c3ccccc3c1=O)C(=O)c1ccccc1-2
inactive: dose: 6.25 mg/kg/injection, schedule: Q01DX005 (ip), vehicle: saline with Tween-80 95 % of control | dose: 12.5 mg/kg/injection, schedule: Q01DX005 (ip), vehicle: saline with Tween-80 88 % of control | dose: 25.0 mg/kg/injection, schedule: Q01DX005 (ip), vehicle: saline with Tween-80 93 % of control

O=C(OC1(c2nccc3ccccc23)CCNCC1)c1ccccc1
inactive: dose: 12.5 mg/kg/injection, schedule: Q01DX005 (ip), vehicle: Klucel (hydroxypropylcellulose) (HPC) 111 % of control | dose: 25.0 mg/kg/injection, schedule: Q01DX005 (ip), vehicle: Klucel (hydroxypropylcellulose) (HPC) 109 % of control | [8] 103 % of control and 104 % of control

COC(=O)C1=CO[C@@H](OC2OC(CO)C(O)C(O)C2O)[C@H]2[C@@H]1C=C[C@@]21C=C([C@H](C)OC(=O)/C=C/c2ccc(OC3OC(CO)C(O)C(O)C3O)cc2)C(=O)O1 (stereo partly specified)
inactive: dose: 56.0 mg/kg/injection, schedule: Q01DX005 (ip), vehicle: water 105 % of control | dose: 112.0 mg/kg/injection, schedule: Q01DX005 (ip), vehicle: water 105 % of control | dose: 225.0 mg/kg/injection, schedule: Q01DX005 (ip), vehicle: water 104 % of control

N#CC(=Nc1cccc(F)c1)C1=C(O)c2ccccc2C1=O
inactive: [5] 100 % of control | [6] 97 % of control

COC1OC(C(C)O)C2OC(C)(C)OC12 (stereo unspecified)
inactive: dose: 30.0 mg/kg/injection, schedule: Q01DX005 (ip), vehicle: saline with Tween-80 101 % of control | [5] 104 % of control and 106 % of control | [6] 108 % of control | [7] 106 % of control and 110 % of control

O=c1cc(NC2OC(CO)C(O)C(O)C2O)[nH]c(=O)[nH]1 (stereo unspecified)
inactive: [5] 96 % of control | [6] 102 % of control | [7] 104 % of control

CCOC(=O)COc1ccc(/C=C(\C)[N+](=O)[O-])c2ccccc12
inactive: [2] 99 % of control | [3] 91 % of control | [4] 100 % of control

Clc1ccc(N=C2N=C(Nc3ccc(Cl)cn3)c3ccccc32)nc1
inactive: dose: 12.5 mg/kg/injection, schedule: Q01DX009 (ip), vehicle: saline with Tween-80 86 % of control | dose: 25.0 mg/kg/injection, schedule: Q01DX009 (ip), vehicle: saline with Tween-80 89 % of control | [2] 87 % of control and 95 % of control

CN1CCC(/C(=N/O)c2ccccc2)(c2ccccc2)CC1
inactive: dose: 50.0 mg/kg/injection, schedule: Q01DX005 (ip), vehicle: Klucel + Tween-80 98 % of control | dose: 100.0 mg/kg/injection, schedule: Q01DX005 (ip), vehicle: Klucel + Tween-80 91 % of control | dose: 200.0 mg/kg/injection, schedule: Q01DX005 (ip), vehicle: Klucel + Tween-80 91 % of control

CN(C(=O)c1cc2c(cc1Br)OCO2)c1cccc2ccccc12
inactive: dose: 12.5 mg/kg/injection, schedule: Q01DX009 (ip), vehicle: distilled water + Tween-80 98 % of control | dose: 25.0 mg/kg/injection, schedule: Q01DX009 (ip), vehicle: distilled water + Tween-80 103 % of control | dose: 50.0 mg/kg/injection, schedule: Q01DX009 (ip), vehicle: distilled water + Tween-80 103 % of control | dose: 100.0 mg/kg/injection, schedule: Q01DX009 (ip), vehicle: distilled water + Tween-80 95 % of control | dose: 200.0 mg/kg/injection, schedule: Q01DX009 (ip), vehicle: distilled water + Tween-80 100 % of control

CC(C)(C)OC(=O)NC(CC(=O)OCc1ccccc1)C(=O)ON1C(=O)CCC1=O (stereo unspecified)
inactive: [8] 106 % of control | dose: 100.0 mg/kg/injection, schedule: Q01DX005 (ip), vehicle: Klucel (hydroxypropylcellulose) (HPC) 106 % of control | dose: 200.0 mg/kg/injection, schedule: Q01DX005 (ip), vehicle: Klucel (hydroxypropylcellulose) (HPC) 97 % of control
